A melting point compilation (Tetko et al.; mined from patent text by program, amines drawn as free bases though some values may be those of a salt)

| Structure (SMILES) | melting point |
| --- | --- |
| COc1ccc(-c2oc3cc(OC)cc(O)c3c(=O)c2OC)cc1 | 143 to 145 °C |
| N#Cc1ncn2c1[C@@H]1CCN1C(=O)c1sccc1-2 | 211 to 213 °C |
| COc1ccc(C(=O)/C=C/c2c(-c3ccc(F)cc3)nc3sccn23)cc1OC | 221 to 223 °C |
| N#CC1(NCC2CCCCC2)CCN(Cc2ccccc2)CC1 | 128 to 130 °C |
| O=[N+]([O-])c1ccc(CCS(=O)(=O)NCc2ccccc2)cc1 | 125 to 127 °C |
| COc1ccc(Cl)cc1CNc1nc(Cl)nc2c1ncn2[C@@H]1SC[C@@H](O)[C@H]1O | 189 to 190 °C |
| Cc1ccccc1C(Oc1cc(OCc2ccc3ncoc3c2)ccc1C#N)C(=O)O (racemic) | 172 to 178 °C |
| C=CC1CCC2C3CCC4=CC(=O)CCC4(C)C3CCC12C (centres undefined) | 122 to 124 °C |
| Cc1oc(-c2ccc(O)cc2)nc1CCOc1ccc(N)cc1 | 184 to 185 °C |
| O=C1NC(=O)C(Cc2ccc(OCCN3c4ccccc4Sc4ccc(C(F)(F)F)cc43)cc2)S1 (centres undefined) | 64 °C |
| C=CCOc1ccc2oc(C(=O)OCC)cc2c1 | 34 to 36 °C |
| Cc1cccc(N2CCN(CCCCc3ccc(C(=O)CCC(=O)O)cc3)CC2)c1 | 199 to 201 °C |
| Cc1oc(-c2ccco2)nc1CCOc1ccc([N+](=O)[O-])cn1 | 120 to 122 °C |
| CN(Cc1cccc2c1CN(C1CCC(=O)NC1=O)C2=O)C(=O)Nc1cc(Cl)cc(Cl)c1 (centres undefined) | 285 to 287 °C |
| CCOC(=O)CSc1ccc(-c2nc3cnccc3[nH]2)cc1 | 230 °C |
| CCOc1ccc2nc(SC(C)(C(=O)O)c3ccccc3)sc2c1 (centres undefined) | 152 to 153 °C |
| CC(C)(C)OC(=O)C=C1CN=C(c2ccccc2F)c2cc(Cl)ccc2N1 | 158 to 160 °C |
| Cn1ccc2ncnc(Oc3ccc(NC(=O)Nc4cc(C(F)(F)F)ccc4F)c(Cl)c3)c21 | 193 to 197 °C |
| CCCCCCCCCCCC12OC(C)CN1CC(C)O2 (centres undefined) | > 130 °C |
| Cc1cccc(C(=O)OCC=Cc2ccccc2)c1O | 154 °C |
| Cc1ccc2c(n1)sc1c(O)cnnc12 | > 300 °C |
| CCCCCN1C(=O)C(NC(=O)C2CCc3ccccc3C2)c2ccccc21 (centres undefined) | 127 to 132 °C |
| COc1ccc(-c2cc3ncnc(Nc4ccc5[nH]ccc5c4)c3s2)cc1OC | 171 to 178 °C |
| OCc1cccc2cc(-c3ccccc3)sc12 | 125 to 126 °C |
| CC1COCc2nc3c(N)nc4ccc(OCCN5CCOCC5)cc4c3n21 (centres undefined) | 186 to 188 °C |
| COC(=O)c1cc(Cl)ccc1-n1cnnc1C | 86 to 88.5 °C |

| Structure (SMILES) | melting point |
| --- | --- |
| Fc1cc(Nc2ccc(Oc3ccccc3)cc2)ccn1 | 149 °C |
| O=C(O)C1C2CC3C(C2=O)C31 (centres undefined) | 144 to 145 °C |
| CCOC(=O)NS(=O)(=O)c1ccc(C(=O)C=Cc2cc(-c3cc4ccccc4[nH]3)c(OC)cc2OC)cc1 | 165 to 175 °C |
| CNS(=O)(=O)c1ccc(Cl)c(C)c1Cl | 118 °C |
| O=C(NCCCCCCNC(=O)c1ccc(Oc2ccccc2)cc1)c1ccc(Oc2ccccc2)cc1 | 183 to 184 °C |
| Cn1c(=O)oc2cc([N+](=O)[O-])cc(F)c21 | 118 to 119 °C |
| Cc1oc(-c2ccccc2)nc1COc1nn(Cc2ccc(Oc3ccccc3)cc2)cc1C(N)=O | 158 to 159 °C |
| OCCN1CCCNC1=S | 112 to 114 °C |
| CC1(C)Oc2ccsc2C(N)C1O (centres undefined) | 111 to 116 °C |
| COC(=O)[C@H](Cc1cccc2ccccc12)NC(=O)[C@H](CC(=O)OC(C)(C)C)NC(=O)c1cccc(NC(=O)OCc2ccccc2)c1 | 95 to 98 °C |
| CCN(CC)CCOc1ccc2c(=O)c3ccc(OCCN(CC)CC)cc3oc2c1 | 70.5 to 72 °C |
| COC1(c2ccc(N(C)C)cc2)OC(=O)c2cc(N(C)C)ccc21 (centres undefined) | 140 to 147 °C |
| COc1ccc(Cc2cc(C3CCCN(C(=O)c4ccc5c(c4)OCO5)C3)nc(N)n2)cc1 (centres undefined) | 125 to 127 °C |
| Cn1c(=O)[nH]c(N2CCc3ccccc3CC2)c(C#N)c1=O | > 200 °C |
| CC1(C)Oc2ccc(C#N)cc2[C@@H](N2CCCC2)[C@@H]1O (relative stereo) | 173 to 174 °C |
| CCCCCCCCCCOc1ccc(-c2ccc(C#CCCC(C)OC)cc2)cc1 (centres undefined) | 97 to 99 °C |
| CCOC(=O)C(CC(=O)c1ccc(Oc2ccc(C)cc2)cc1)SC(C)=O (centres undefined) | 85 to 86.5 °C |
| Cc1noc(NC(=O)N2CCN(c3cncc(-c4ccc(F)cc4F)c3)CC2)c1C | 147 to 148 °C |
| CCc1cc([N+](=O)[O-])c(NC(CC)CC)c([N+](=O)[O-])c1COC | 28 to 29 °C |
| CCCCCCCc1ccc(C=Nc2ccc(C#N)cc2)cc1 | 32.7 to 33 °C |
| CCCCCC(CC(=O)O)c1cc(C=O)c(OC)cc1OC (centres undefined) | 110 to 112 °C |
| CC(=O)OC(CBr)Cc1c(O)ccc2ncccc12 (centres undefined) | 146 to 148 °C |
| CC(C)(C)C1=CC(O)(C(F)(F)F)C=C(C(C)(C)C)C1=O | 93 to 94 °C |
| COc1ccc2c(c1)CC(Nc1ccc(OCc3ccccc3)cc1)C2 (centres undefined) | 55 to 57 °C |
| COc1ccc(C2=NNC(=O)CC2)cc1N | 218 to 220 °C |
| COC(=O)c1ccc(OC)c2c1OCCCO2 | 212 °C |

| Structure (SMILES) | melting point |
| --- | --- |
| Cc1c(C(=O)O)oc2cc(S)ccc12 | 230 to 232 °C |
| CCOC(=O)c1cc2sc(C)c(N(C)C(=O)OCc3ccccc3)c2[nH]1 | 122 °C |
| Cc1cc(-n2ccc(OCc3ccccc3)cc2=O)sc1C(=O)NCc1ccccc1 | 153 to 154 °C |
| CC(CO)Oc1ccc(CNc2ccc(Cl)cc2)cc1 (centres undefined) | 81 to 83 °C |
| CC(C)n1c(=O)nc(-c2ccc3ccccc3c2)c2cc3c(cc21)OCO3 | 213 to 215 °C |
| CN(C)C(=O)c1ccc(I)cc1 | 103 to 106 °C |
| O=C(Nc1cc2c(s1)-c1ccccc1OC2C1=CCCC=C1)C(F)(F)F (centres undefined) | 174 to 176 °C |
| Cn1nnnc1SCCCSc1nnnn1C | 142 to 144 °C |
| COCCOc1cc(NS(=O)(=O)c2ccccn2)c2[nH]c(C3=NCC(CN4CCS(=O)(=O)CC4)S3)cc2c1 (centres undefined) | 218 to 219 °C |
| CC(=O)OCCOCn1cnc2c(=O)[nH]c(N)nc21 | 240 to 241 °C |
| CC(O)CN1C(=O)N(CN2C(=O)N(CC(C)O)C(=O)C2(C)C)C(C)(C)C1=O (centres undefined) | 131 to 133 °C |
| O=C1CCCN1CCCNCc1ccc(-c2cc3ncnc(Nc4ccc5[nH]ccc5c4)c3s2)cc1 | 139 to 146 °C |
| CC1(c2ccc(F)cc2)OC(C=Cc2ccccn2)=CC1=O (centres undefined) | 70 to 72 °C |
| COc1cc(OC)c(-c2cc3ccccc3s2)cc1/C=C/C(=O)c1ccc(C(=O)NC(C)=O)cc1 | 228 to 229 °C |
| Cc1cc2cc(OCCCCBr)ccc2[nH]1 | 77 to 79 °C |
| COC(=O)c1c(I)cccc1Nc1ccccc1C(=O)O | 191 to 193 °C |
| COC(=O)c1cccc(C(=O)N(C)c2ccc3c(=O)n4c(nc3c2)C(=Cc2ccccc2)CC4)c1 | 200 to 202 °C |
| CCCCc1nc2c(N)nc3c(c2n1CCCCN)CCCC3 | 63 to 67 °C |
| Cn1c2cc(Cl)ccc2c(=O)c2c(Br)cccc21 | 223 to 225 °C |
| COc1ccc(OCc2nc(N)c3nccnc3n2)cc1 | 238 to 240 °C |
| CC1SC=C2c3ccccc3C=CN2C1=O (centres undefined) | 67 to 68 °C |
| COc1ccc2sc(S(N)(=O)=O)cc2c1 | 125 to 127 °C |
| CN1CN(C2CCCC2)CN(c2nc3c(s2)C(=O)CC(C)(C)C3)C1=O | 181 to 183 °C |
| O=C(Nc1ccncn1)c1ccccc1SSc1ccccc1C(=O)Nc1ccncn1 | 234 to 235 °C |
| CCOC(=O)c1cn(-c2ccc3ncccc3c2)cn1 | 90 to 94 °C |
| CCC(O)CNC(=O)c1nn(C2CCCCO2)cc1NC(=O)c1ccccn1 (centres undefined) | 160 to 161 °C |

| Structure (SMILES) | melting point |
| --- | --- |
| O=C1NCCN(NC(=O)c2ccc(O)c(O)c2)C1=O | 294 °C |
| N#CCNC(=O)C1CC1 | 91 to 92 °C |
| CC(C)(C)c1nc2cc(N3CCN(c4ccccc4)CC3)c([N+](=O)[O-])cc2s1 | 152 to 155 °C |
| Cc1ccc([N+](=O)[O-])cc1N(C)c1nnn[nH]1 | 201 to 205 °C |
| CC(C)(C)NNC(=O)c1ccccc1 | 94 to 95 °C |
| CN1CCN(c2cc3c(cc2F)c(=O)c(C(=O)O)cn3CCF)CC1 | 256 to 258 °C |
| Nc1c(Cl)ncnc1NCc1ccc(CO)o1 | 137 °C |
| COC(=O)c1ccc(OCCCOc2c(C)c(C)c(C(=O)Oc3c(C)c(C)c(C(N)=O)c(OC)c3C)c(OC)c2C)cc1 | 202 to 204 °C |
| Cc1cc(C)c2c(-c3cc(C(C)(C)C)c(O)c(C(C)(C)C)c3)n[nH]c2n1 | 257 to 258 °C |
| CNC(=O)c1ccccc1C(=O)NCSc1ccncc1 | 118 to 121 °C |
| CC(C)(C)c1ccc(S(=O)(=O)Nc2cc(Cl)ncn2)cc1 | 225 to 226 °C |
| COCc1nc2cnc3ccccc3c2n1CC(C)C | 96 to 99 °C |
| c1cc(NC2=NCCO2)c2occc2c1 | 124 to 126 °C |
| C[C@@H]1[C@@H](NC(=O)OCc2ccccc2)CN1S(=O)(=O)O | 55 to 64 °C |
| Cc1cc(CCC(=O)c2ccc(-c3ccc(C(F)(F)F)cc3)s2)ccc1OC(C)(C)C(=O)O | 130 to 131 °C |
| COc1ccc(CCNCC(O)c2cc(OCc3ccccc3)cc(OCc3ccccc3)c2)cc1OC (centres undefined) | 85 to 86 °C |
| CNc1ncnc2c1ncn2Cc1c(F)cccc1Cl | 188 to 190 °C |
| COc1cc2c(cc1OCc1ccccc1)CCN(Cc1cc(OC)c(OC)c(OC)c1)C2 | 144 to 145 °C |
| Cn1cnc(COc2nc3c(cc2C(C)(C)C)nnn3-c2ccccc2)n1 | 179 to 180 °C |
| COc1ccccc1-c1csc(Nc2ccc(C)cn2)n1 | 228 to 230 °C |
| CCOC(=O)C=C1CSC2=C1SCC=NC2 | 86 to 87 °C |
| Cc1nn(C)c2c1N=C(C1CC1)N1CC(C)N=C21 (centres undefined) | 107 to 110 °C |
| CC(O)c1cc(I)c(O)c(Cl)n1 (centres undefined) | 114 to 116 °C |
| Cc1ccc(C=CC(=O)C(CCC(=O)O)(Cc2ccccc2Cl)c2ccccc2)cc1 (centres undefined) | 120 to 147 °C |
| O=C(Cn1nc2ccccc2n1)Nc1ccc(-n2nc(C(F)(F)F)cc2C2CC2)nc1 | 193 to 198 °C |
| CCOC(=O)c1c(Cn2cncn2)nc2sc(C)c(C)c2c1-c1ccc(Cl)cc1 | 144 to 145 °C |
